Experiment in all cases: NCI-60 cell line screen, 48 h
Test [1] has as its system OVCAR-8.
Test [2] has as its system SR.
Test [3] relates to HOP-92.
Test [4] has as its system SK-MEL-5.
The test system of test [5] is HCC 2998.
The test system of test [6] is NCI-H460.
The subject of test [7] is K562.
For test [8], the system named is IGROV-1.
Test [9] deals with NCI-H23.
The test system of test [10] is SK-MEL-28.
For test [11], the system named is M19-MEL.
Test [12] relates to UO-31.
The test system of test [13] is HCT-15.
Test [14] relates to NCI-H522.
Test [15] deals with HL-60.
Test [16] has as its system RPMI-8226.
Test [17] concerns A498.

This note sets out measurements from ChEMBL document CHEMBL1201862, “PubChem BioAssay data set” (2004).

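Protocol summary: plate cells (96-well), add compound at 5 concentrations, incubate 48 h, interpolate endpoints linearly. Abbreviation: GI50, concentration required for 50% inhibition of growth.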 The source made the active and inactive calls. Rule as the data show it: active = GI50 up to about 1.1 µM and inactive = higher.

As to `CCCN1C(=O)C/C(=C\C(C)=O)Nc2ccccc21`, the GI50 in [1], in test [2], in test [3], in test [4], in test [5] and in [6] was > 100 µM (inactive) throughout. For the same molecule, the GI50 in test [7], in test [8], in test [9], in [10], in test [11] and in [12] was > 100 µM (inactive) in each case. The figures for the GI50 in test [13] and in test [14] were above 100 µM and > 100 µM (inactive), respectively.
Take `O=c1cccccc1NCCCCCCCCNc1cccccc1=O`: the GI50 in [1] was > 100 µM (inactive); in test [2], 17.8 µM (inactive); in [3], 22.9 µM (inactive); in test [15] it was 3.53 µM (inactive); in [5], > 100 µM (inactive); in [6], 85.7 µM (inactive). In addition, the GI50 is 6.56 µM (inactive) in test [16]; 7.06 µM (inactive) in test [7]; 94.2 µM (inactive) in [8]; 6.78 µM (inactive) in test [9]; > 100 µM (inactive) in test [11]; 35.4 µM (inactive) in test [12]. Moreover, the GI50 in test [13] is above 100 µM; in [14] it was 75.3 µM (inactive).
For `CN(C)CCCNc1ccnc2c([N+](=O)[O-])cccc12`, the GI50 in test [1] is 20.7 µM (inactive); in [2], 27.9 µM (inactive); in [15] it was > 10 µM (inactive); in [5], 13.6 µM (inactive); in test [6] it was 15.5 µM (inactive); in test [16] it was 21.6 µM (inactive). The GI50 was > 10 µM (inactive) in [7]; 14.6 µM (inactive) in test [9]; 95.7 µM (inactive) in [10]; 2.44 µM (inactive) in test [11]; 38.7 µM (inactive) in test [12]; 22.2 µM in [13]. In addition, the GI50 in [14] was 17.1 µM (inactive).
For the molecule `N#C/N=C1\NCCC(=O)N1CCc1c[nH]c2ccccc12`, the GI50 in [1], in test [2], in test [15], in [4], in test [5] and in test [16] was > 100 µM (inactive) in each case. For the same molecule, the GI50 in test [7], in test [8], in test [9], in test [10], in test [11] and in test [12] was > 100 µM (inactive) in each case. Also, the GI50 in [13] is above 100 µM.
Consider `CN(C)CCC(/C=C/c1ccccc1)=N\Nc1ccc(Cl)cc1`, for which the GI50 in test [1] was 2.98 µM (inactive); in test [3], 2.18 µM (inactive); in test [15] it was 2.18 µM (inactive); in test [4], 14.7 µM (inactive); in [5] it was 1.69 µM (inactive); in test [6], 2.1 µM (inactive). Further, the GI50 in [16] was 1.9 µM (inactive); in [7], 2.21 µM (inactive); in test [8], 2.64 µM (inactive); in [9] it was 7.24 µM (inactive); in [10], 12.8 µM (inactive); in [17], 7.66 µM (inactive). Also, the GI50 in [11] was 6.78 µM (inactive); in [12] it was 1.71 µM (inactive); in test [13] it was 3.01 µM; in test [14], 3.24 µM (inactive).
As for `N=C(N)NS(=O)(=O)c1ccc(Nc2c3ccccc3nc3c(C(=O)Nc4ccc(S(N)(=O)=O)cc4)cccc23)cc1`, the GI50 was > 100 µM (inactive) in [1]; 47.9 µM (inactive) in [3]; 88.1 µM (inactive) in [15]; 78.9 µM (inactive) in test [4]; 55.5 µM (inactive) in [5]; > 100 µM (inactive) in test [6]. Besides, the GI50 in [16] is > 100 µM (inactive); in test [7], 33.3 µM (inactive); in test [8], > 100 µM (inactive); in test [9], > 100 µM (inactive); in [10], > 100 µM (inactive); in [17] it was > 100 µM (inactive). Moreover, the GI50 in test [11] is > 100 µM (inactive); in [12] it was > 100 µM (inactive); in [13], above 100 µM; in [14] it was 15.8 µM (inactive).
Take `COc1ccc2c(c1)OCCCN(C)OC2c1ccccc1` (stereo unspecified): the GI50 in test [1], in test [2], in test [4], in [5], in test [16] and in test [7] was > 100 µM (inactive) throughout. Also, the GI50 is > 100 µM (inactive) in test [8]; > 100 µM (inactive) in [9]; 89.3 µM (inactive) in test [10]; > 100 µM (inactive) in [11]; > 100 µM (inactive) in [12]; above 100 µM in test [13].
As for `C#Cc1cccc(N2C(=O)c3c(c(-c4ccccc4)c(-c4ccc(Cc5ccc(-c6c(-c7ccccc7)c7c(c(-c8ccccc8)c6-c6ccccc6)C(=O)N(c6cccc(C#C)c6)C7=O)cc5)cc4)c(-c4ccccc4)c3-c3ccccc3)C2=O)c1`, the GI50 is 31.5 µM (inactive) in test [1]; 2.79 µM (inactive) in test [3]; 22.3 µM (inactive) in [15]; 21.9 µM (inactive) in test [4]; 44.7 µM (inactive) in test [5]; 43.2 µM (inactive) in test [6]. Besides, the GI50 in test [16] was 24.9 µM (inactive); in test [7] it was 16.9 µM (inactive); in test [8], 12.6 µM (inactive); in test [9], 31.2 µM (inactive); in test [10], > 100 µM (inactive); in [11], 23.1 µM (inactive). The GI50 in test [12] was 36.7 µM (inactive); in [13], 7.85 µM; in test [14] it was > 100 µM (inactive).
Turning to `O=C(c1ccccc1)c1oc2ccc(Br)cc2c1-c1cnn(-c2ccccc2)c1`, the GI50 in test [1] was > 10 µM (inactive); in test [3] it was > 100 µM (inactive); in test [15], > 100 µM (inactive); in test [4], > 10 µM (inactive); in test [5] it was > 100 µM (inactive); in test [6], > 100 µM (inactive). Moreover, the GI50 in [16] was 54.7 µM (inactive); in [7], > 100 µM (inactive); in [8] it was > 100 µM (inactive); in test [9], > 100 µM (inactive); in [10], > 100 µM (inactive); in [11] it was > 100 µM (inactive). Besides, the values for the GI50 in test [12], in [13] and in test [14] were > 100 µM (inactive), above 100 µM and 7.48 µM (inactive), respectively.
In the case of `COC(=O)C(=O)C(C#N)c1c(Cl)cccc1Cl` (stereo unspecified), the GI50 in [1], in test [3], in [15], in test [4], in test [6] and in test [16] was > 100 µM (inactive) each time. Moreover, the GI50 in test [7], in test [8], in test [9], in test [10], in test [17] and in test [11] was > 100 µM (inactive) throughout. Also, the GI50 in [12] was > 100 µM (inactive); in test [13], above 100 µM; in test [14], > 100 µM (inactive).
Turning to `C[n+]1c2ccccc2c(/C=N\NS(=O)(=O)c2ccc(O)c(C(=O)O)c2)c2ccccc21`, the GI50 in test [1] is 43.7 µM (inactive); in test [3] it was 46.7 µM (inactive); in [15], 22.1 µM (inactive); in [4] it was 39.8 µM (inactive); in [5], > 100 µM (inactive); in [6] it was 36.2 µM (inactive). Also, the GI50 in test [16] is 40.6 µM (inactive); in test [7], 27.5 µM (inactive); in test [8], 58.5 µM (inactive); in test [9], 91.4 µM (inactive); in [10], 61.7 µM (inactive); in test [17], 37.6 µM (inactive). Also, the GI50 is 99.8 µM (inactive) in test [11], 29.2 µM (inactive) in test [12], 38.7 µM in test [13] and 30.6 µM (inactive) in [14].
Regarding `CCC(/C=C/c1ccccc1)=N\N=C(\C=C\c1ccccc1)CC`, the GI50 in [1], in test [2], in [15], in test [4], in test [5] and in test [6] was > 100 µM (inactive) throughout. In addition, the GI50 in [16], in [7], in test [8], in test [9], in test [10] and in [17] was > 100 µM (inactive) each time. Further, the GI50 in test [11] was > 100 µM (inactive); in test [12], > 100 µM (inactive); in test [13], above 100 µM; in test [14] it was > 100 µM (inactive).
Consider `O=C1C2Cc3ccccc3CN2C(=O)N1CCN1CCOCC1` (stereo unspecified), for which the GI50 in test [1], in [2], in [15], in test [4], in test [5] and in [6] was > 100 µM (inactive) in each case. In addition, the GI50 in test [16], in [7], in test [8], in test [9], in test [10] and in test [17] was > 100 µM (inactive) each time. Further, the GI50 in test [11] was > 100 µM (inactive); in test [12], > 100 µM (inactive); in test [13] it was above 100 µM; in test [14], > 100 µM (inactive).
